The text below walks through data of patent US8383646B2, “Therapeutic ((bicylicheteroaryl)imidazolyl) methylheteroaryl compounds” (Allergan, Inc., priority 2007, dated 2013).

Common to all, as to format: cell-based
The target of assay [1] is T1, alpha2A receptor (Homo sapiens, UniProt P08913).
T1 construct: expressed in transfected cells; host or cells: NIH-3T3 cells
T1 sequence (P08913 1-465): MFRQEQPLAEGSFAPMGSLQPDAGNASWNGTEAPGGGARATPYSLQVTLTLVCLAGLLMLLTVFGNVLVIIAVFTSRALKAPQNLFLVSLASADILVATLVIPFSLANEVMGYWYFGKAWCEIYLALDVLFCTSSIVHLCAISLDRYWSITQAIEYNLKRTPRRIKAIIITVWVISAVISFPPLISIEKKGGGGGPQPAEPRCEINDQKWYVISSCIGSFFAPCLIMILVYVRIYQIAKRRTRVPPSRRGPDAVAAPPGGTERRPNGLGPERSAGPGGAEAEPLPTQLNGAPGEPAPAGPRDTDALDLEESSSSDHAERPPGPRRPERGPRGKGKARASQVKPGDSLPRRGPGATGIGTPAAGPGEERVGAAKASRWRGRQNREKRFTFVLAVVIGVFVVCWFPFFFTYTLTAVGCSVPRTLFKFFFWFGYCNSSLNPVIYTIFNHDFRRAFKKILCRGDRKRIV
Nature of the assay: RSAT assay, alpha2A receptor. As to conditions: for Alpha 2A intrinsic activity (efficacy): ratio of maximal effect to that of standard full agonist brimonidine (UK14304), value in parentheses; for EC50: transfected NIH-3T3 cells with Gq/i5, ND = not determinable at concentrations less than 10 micromolar, read-out: Alpha 2A potency (EC50). Here is the method: (§1) Receptor Selection and Amplification Technology (RSAT) Assay
(§2) The RSAT assay measures a receptor-mediated loss of contact inhibition that results in selective proliferation of receptor-containing cells in a mixed population of confluent cells. The increase in cell number is assessed with an appropriate transfected marker gene such as β-galactosidase, the activity of which can be easily measured in a 96-well format. Receptors that activate the G protein, Gq, elicit this response. Alpha2 receptors, which normally couple to Gi, activate the RSAT response when coexpressed with a hybrid Gq protein that has a Gi receptor recognition domain, called Gq/i5.
(§3) NIH-3T3 cells are plated at a density of 2×10^6 cells in 15 cm dishes and maintained in Dulbecco's modified Eagle's medium supplemented with 10% calf serum. One day later, cells are cotransfected by calcium phosphate precipitation with mammalian expression plasmids encoding p-SV-β-galactosidase (5-10 μg), receptor (1-2 μg) and G protein (1-2 μg). 40 μg salmon sperm DNA may also be included in the transfection mixture. Fresh media is added on the following day and 1-2 days later, cells are harvested and frozen in 50 assay aliquots. Cells are thawed and 100 μl added to 100 μl aliquots of various concentrations of drugs in triplicate in 96-well dishes. Incubations continue 72-96 hr at 37° C. After washing with phosphate-buffered saline, β-galactosidase enzyme activity is determined by adding 200 μl of the chromogenic substrate (consisting of 3.5 mM o-nitrophenyl-β-D-galactopyranoside and 0.5% nonidet P-40 in phosphate buffered saline), incubating overnight at 30° C. and measuring optical density at 420 nm. The absorbance is a measure of enzyme activity, which depends on cell number and reflects a receptor-mediated cell proliferation. The efficacy or intrinsic activity is calculated as a ratio of the maximal effect of the drug to the maximal effect of a standard full agonist for each receptor subtype. Brimonidine, also called UK14304, the chemical structure of which is shown below, is used as the standard agonist for the alpha2A, alpha2B and alpha2C receptors. The EC50 is the concentration at which the drug effect is half of its maximal effect.
(§4) The results of the RSAT assay with several exemplary compounds of the invention are disclosed in Table 1 above together with the chemical formulas of these exemplary compounds. EC50 values are nanomolar. ND stands for “not determinable” at concentrations less than 10 micromolar. IA stands for “intrinsic activity.”

For assay [2], the target named is T2, alpha2B receptor (Homo sapiens, UniProt P18089).
T2 construct: expressed in transfected cells; host or cells: NIH-3T3 cells
T2 sequence (P18089 1-450): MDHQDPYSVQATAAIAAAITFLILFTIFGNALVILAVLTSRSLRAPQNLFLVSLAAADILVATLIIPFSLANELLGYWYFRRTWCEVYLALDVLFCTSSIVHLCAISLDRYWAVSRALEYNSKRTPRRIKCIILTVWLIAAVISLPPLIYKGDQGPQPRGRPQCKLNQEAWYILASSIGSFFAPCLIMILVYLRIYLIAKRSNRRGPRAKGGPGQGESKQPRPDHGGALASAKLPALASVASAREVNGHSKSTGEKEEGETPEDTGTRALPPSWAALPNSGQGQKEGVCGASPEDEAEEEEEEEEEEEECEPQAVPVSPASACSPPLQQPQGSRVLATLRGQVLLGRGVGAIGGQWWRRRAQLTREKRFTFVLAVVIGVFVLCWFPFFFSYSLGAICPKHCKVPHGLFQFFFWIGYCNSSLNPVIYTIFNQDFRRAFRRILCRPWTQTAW
Kind of assay: RSAT assay, alpha2B receptor. Conditions: for Alpha 2B intrinsic activity (efficacy): ratio of maximal effect to that of standard full agonist brimonidine (UK14304), value in parentheses; for EC50: transfected NIH-3T3 cells with Gq/i5, ND = not determinable at concentrations less than 10 micromolar, read-out: Alpha 2B potency (EC50). As to the method:
as §1, §2, §3, §4

In assay [3] the target is T3, alpha2C receptor (Homo sapiens, UniProt P18825).
T3 construct: expressed in transfected cells; host or cells: NIH-3T3 cells
T3 sequence (P18825 1-462): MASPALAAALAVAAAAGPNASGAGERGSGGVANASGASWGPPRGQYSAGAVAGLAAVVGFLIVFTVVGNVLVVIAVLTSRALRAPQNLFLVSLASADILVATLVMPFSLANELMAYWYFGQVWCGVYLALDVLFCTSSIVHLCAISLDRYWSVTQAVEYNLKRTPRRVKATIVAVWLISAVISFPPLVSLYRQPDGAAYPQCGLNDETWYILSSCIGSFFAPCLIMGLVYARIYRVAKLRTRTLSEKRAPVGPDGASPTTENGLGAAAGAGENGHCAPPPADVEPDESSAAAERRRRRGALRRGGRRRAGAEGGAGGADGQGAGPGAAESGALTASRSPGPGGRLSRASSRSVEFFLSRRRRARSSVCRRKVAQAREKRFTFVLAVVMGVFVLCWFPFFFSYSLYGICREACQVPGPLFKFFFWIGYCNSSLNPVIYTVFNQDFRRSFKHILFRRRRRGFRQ
Kind of assay: RSAT assay, alpha2C receptor. As to conditions: for Alpha 2C intrinsic activity (efficacy): ratio of maximal effect to that of standard full agonist brimonidine (UK14304), value in parentheses; for EC50: transfected NIH-3T3 cells with Gq/i5, ND = not determinable at concentrations less than 10 micromolar, read-out: Alpha 2C potency (EC50). As to the method:
as §1, §2, §3, §4

The term EC50 denotes the midpoint of the concentration-response curve. In the case of `c1ccc(C(c2cnc[nH]2)c2cccc3cccnc23)nc1` (stereo not shown), in assay [1], the “Alpha 2A intrinsic activity (efficacy)” value is 0.15 and the half-maximal effective concentration (EC50) was over 10000 nM. For the same compound, in assay [2], the “Alpha 2B intrinsic activity (efficacy)” value came out at 1.00 and the EC50 turned out to be 22 nM. In addition, in assay [3], the “Alpha 2C intrinsic activity (efficacy)” value came to 0.60 and the EC50 amounted to 275 nM.
As to `c1cncc(C(c2cnc[nH]2)c2cccc3cccnc23)c1` (stereo not shown), in assay [1], the “Alpha 2A intrinsic activity (efficacy)” value turned out to be 0.50 and the EC50 came out at 576 nM. In assay [2], the “Alpha 2B intrinsic activity (efficacy)” value is 1.29 and the EC50 came to 2.15 nM. In addition, in assay [3], the “Alpha 2C intrinsic activity (efficacy)” value was determined as 1.16 and the concentration giving a half-maximal response (EC50) stood at 123 nM.
For `c1ccc(C(c2cnc[nH]2)c2cccc3ncccc23)nc1` (stereo not shown), in assay [1], the “Alpha 2A intrinsic activity (efficacy)” value was determined as 0.13 and the EC50 is over 10000 nM. For the same compound, in assay [2], the “Alpha 2B intrinsic activity (efficacy)” value is 0.45 and the EC50 amounted to 348 nM. In assay [3], the “Alpha 2C intrinsic activity (efficacy)” value turned out to be 0.22 and the concentration for a half-maximal effect (EC50) was over 10000 nM.
With `c1cncc(C(c2cnc[nH]2)c2cccc3ncccc23)c1` (stereo not shown), in assay [1], the “Alpha 2A intrinsic activity (efficacy)” value is 0.12 and the half-maximal effective concentration (EC50) is over 10000 nM. Further, in assay [2], the “Alpha 2B intrinsic activity (efficacy)” value was 0.90 and the EC50 came to 231 nM. In assay [3], the “Alpha 2C intrinsic activity (efficacy)” value was 0.33 and the EC50 was over 10000 nM.
Take `c1cc(C(c2ccncc2)c2cnc[nH]2)c2cccnc2c1` (stereo not shown): in assay [1], the EC50 is over 10000 nM. In assay [2], the “Alpha 2B intrinsic activity (efficacy)” value turned out to be 0.65 and the 50% effective concentration (EC50) amounted to 771 nM. Also, in assay [3], the “Alpha 2C intrinsic activity (efficacy)” value was determined as 0.18 and the half-maximal effective concentration (EC50) is over 10000 nM.
For `c1ccc(C(c2cnc[nH]2)c2cccc3c2OCC3)nc1` (stereo not shown), the “Alpha 2A intrinsic activity (efficacy)” value in assay [1] stood at 0.23. In assay [2], the “Alpha 2B intrinsic activity (efficacy)” value amounted to 0.87 and the EC50 turned out to be 9.12 nM. Besides, in assay [3], the “Alpha 2C intrinsic activity (efficacy)” value amounted to 0.86 and the concentration for a half-maximal effect (EC50) was 159 nM.
In the case of `c1cncc(C(c2cnc[nH]2)c2cccc3c2OCC3)c1` (stereo not shown), in assay [1], the “Alpha 2A intrinsic activity (efficacy)” value amounted to 0.46 and the concentration for a half-maximal effect (EC50) is 430 nM. Besides, in assay [2], the “Alpha 2B intrinsic activity (efficacy)” value was found to be 1.13 and the EC50 came out at 10 nM. For the same compound, in assay [3], the “Alpha 2C intrinsic activity (efficacy)” value was 1.12 and the EC50 came to 157 nM.
